Laboratory results reported in patent US12338220B2, “Antiviral pyrazolopiridinone compounds” (Novartis AG, priority 2019, dated 2025).
Where two headings read alike, the source gives them in different places.

Tests used:
[1] = molecular target: CMV-polymerase (Human cytomegalovirus (strain AD169) (HHV-5) (Human herpesvirus 5), UniProt P08546); assay: biochemical; settings: read-out: CMV-polymerase Biochemical IC50
[2] = tested on: CMV; assay: microbe, parasite or virus in culture; type: cell-based
[3] = Human betaherpesvirus 5, 72 h, read-out: CMV-Luc Cellular EC50, NN-NHDF cells, MOI 1, 72 hrs
[4] = NN-NHDF cells, MOI 1, 72 hrs, read-out: CMV-Luc Cellular EC50

| Structure (SMILES) | EC50 [2, 3] [nM] | also measured |
| --- | --- | --- |
| CC1Cc2c(C(=O)NCc3ccc(C#N)cc3)nn(C)c2C(=O)N1CC1(S(C)(=O)=O)CC1 (single isomer, unassigned) [Example 41, (R)- or (S)-N-(4-cyanobenzyl)-1,5-dimethyl-6-((1-(methylsulfonyl)cyclopropyl)methyl)-7-oxo-4,5,6,7-tetrahydro-1H-pyrazolo[3,4-c]pyridine-3-carboxamide] |  | IC50 [1]: 9770 nM |
| CC(N)COCC(C)(C)S(=O)(=O)C1(CN2CCc3c(C(=O)NCc4ccc(Cl)cc4)nn(C)c3C2=O)CC1 (single isomer, unassigned) [Example 97, (R)- or (S)-6-((1-((1-(2-Aminopropoxy)-2-methylpropan-2-yl)sulfonyl)cyclopropyl)methyl)-N-(4-chlorobenzyl)-1-methyl-7-oxo-4,5,6,7-tetrahydro-1H-pyrazolo[3,4-c]pyridine-3-carboxamide] | 8 |  |
| CC(N)COCC(C)(C)S(=O)(=O)C1(CN2CCc3c(C(=O)NCc4ccc(Cl)cc4)nn(C)c3C2=O)CC1 (single isomer, unassigned) [Example 98, (R)- or (S)-6-((1-((1-(2-Aminopropoxy)-2-methylpropan-2-yl)sulfonyl)cyclopropyl)methyl)-N-(4-chlorobenzyl)-1-methyl-7-oxo-4,5,6,7-tetrahydro-1H-pyrazolo[3,4-c]pyridine-3-carboxamide] |  | EC50 ([2]; read-out: CMV-Luc Cellular EC50, NN-NHDF cells, MOI 1, 72 hrs): 8 nM |
| CC(N)COCC(C)(C)S(=O)(=O)C1(CN2CCc3c(C(=O)NCc4ccc(C#N)cc4)nn(C)c3C2=O)CC1 (single isomer, unassigned) [Example 99, (R)- or (S)-6-((1-((1-(2-Aminopropoxy)-2-methylpropan-2-yl)sulfonyl)cyclopropyl)methyl)-N-(4-cyanobenzyl)-1-methyl-7-oxo-4,5,6,7-tetrahydro-1H-pyrazolo[3,4-c]pyridine-3-carboxamide] | 14 |  |
| Cn1nc(C(=O)NCc2ccc(C#N)cc2)c2c1C(=O)N(CC1(S(=O)(=O)N3CCC(C)(O)C3)CC1)CC2 (single isomer, unassigned) [Example 131, (R)- or (S)-N-(4-Cyanobenzyl)-6-((1-((3-hydroxy-3-methylpyrrolidin-1-yl)sulfonyl)cyclopropyl)methyl)-1-methyl-7-oxo-4,5,6,7-tetrahydro-1H-pyrazolo[3,4-c]pyridine-3-carboxamide] |  | IC50 [1]: 16 nM |
| Cn1nc(C(=O)NCc2ccc(C#N)cc2)c2c1C(=O)N(CC1(S(=O)(=O)C3CCOC3)CC1)CC2 (single isomer, unassigned) [Example 170, (R)- or (S)-N-(4-Cyanobenzyl)-1-methyl-7-oxo-6-((1-((tetrahydrofuran-3-yl)sulfonyl)cyclopropyl)methyl)-4,5,6,7-tetrahydro-1H-pyrazolo[3,4-c]pyridine-3-carboxamide] | 124 |  |
| Cn1nc(C(=O)NCc2ccc(C#N)cc2)c2c1C(=O)N(CC1(S(=O)(=O)C(C)(CN)CO)CC1)CC2 (single isomer, unassigned) [Example 184, (R)- or (S)-6-((1-((1-Amino-3-hydroxy-2-methylpropan-2-yl)sulfonyl)cyclopropyl)methyl)-N-(4-cyanobenzyl)-1-methyl-7-oxo-4,5,6,7-tetrahydro-1H-pyrazolo[3,4-c]pyridine-3-carboxamide] | 165 |  |
| Cn1nc(C(=O)NCc2ccc(C#N)cc2)c2c1C(=O)N(CC1(S(=O)(=O)C(C)(C)C(O)CN)CC1)CC2 (single isomer, unassigned) [Example 199, (R)- or (S)-6-((1-((4-Amino-3-hydroxy-2-methylbutan-2-yl)sulfonyl)cyclopropyl)methyl)-N-(4-cyanobenzyl)-1-methyl-7-oxo-4,5,6,7-tetrahydro-1H-pyrazolo[3,4-c]pyridine-3-carboxamide] | 19 | EC50 ([2]; Human betaherpesvirus 5, read-out: Cellular activity against CMV (EC50), Table 18): 18 nM |
| CNCC(O)C(C)(C)S(=O)(=O)C1(CN2CCc3c(C(=O)NCc4ccc(C#N)cc4)nn(C)c3C2=O)CC1 (single isomer, unassigned) [Example 202, (R)- or (S)-N-(4-Cyanobenzyl)-6-((1-((3-hydroxy-2-methyl-4-(methylamino)butan-2-yl)sulfonyl)cyclopropyl)methyl)-1-methyl-7-oxo-4,5,6,7-tetrahydro-1 H-pyrazolo[3,4-c]pyridine-3-carboxamide] | 30 |  |
| CNCC(O)C(C)(C)S(=O)(=O)C1(CN2CCc3c(C(=O)NCc4ccc(Cl)cc4)nn(C)c3C2=O)CC1 (single isomer, unassigned) [Example 204, (R)- or (S)-N-(4-Chlorobenzyl)-6-((1-((3-hydroxy-2-methyl-4-(methylamino)butan-2-yl)sulfonyl)cyclopropyl)methyl)-1-methyl-7-oxo-4,5,6,7-tetrahydro-1 H-pyrazolo[3,4-c]pyridine-3-carboxamide] | 11 |  |
| CN(C)CC(O)C(C)(C)S(=O)(=O)C1(CN2CCc3c(C(=O)NCc4ccc(Cl)cc4)nn(C)c3C2=O)CC1 (single isomer, unassigned) [Example 206, (R)- or (S)-N-(4-Chlorobenzyl)-6-((1-((4-(dimethylamino)-3-hydroxy-2-methylbutan-2-yl)sulfonyl)cyclopropyl)methyl)-1-methyl-7-oxo-4,5,6,7-tetrahydro-1H-pyrazolo[3,4-c]pyridine-3-carboxamide] | 71 |  |
| Cn1nc(C(=O)OCc2ccc(C#N)cc2)c2c1C(=O)N(CC1(S(=O)(=O)C3CC3)CC1)CC2 [Example 24, 4-cyanobenzyl 6-((1-(cyclopropylsulfonyl)cyclopropyl)methyl)-1-methyl-7-oxo-4,5,6,7-tetrahydro-1H-pyrazolo[3,4-c]pyridine-3-carboxylate] | 197 |  |
| N#Cc1ccc(CNC(=O)c2n[nH]c3c2CCN(CC2(S(=O)(=O)C4CC4)CC2)C3=O)cc1 [Example 45, N-(4-Cyanobenzyl)-6-((1-(cyclopropylsulfonyl)cyclopropyl)methyl)-7-oxo-4,5,6,7-tetrahydro-1H-pyrazolo[3,4-c]pyridine-3-carboxamide] |  | EC50 [2, 4]: 146 nM |
| Cn1nc(C(=O)NCc2ccc(C#N)cc2)c2c1C(=O)N(CC1(S(=O)(=O)C(C)(C)COCCO)CC1)CC2 [Example 87, N-(4-Cyanobenzyl)-6-((1-((1-(2-hydroxyethoxy)-2-methylpropan-2-yl)sulfonyl)cyclopropyl)methyl)-1-methyl-7-oxo-4,5,6,7-tetrahydro-1H-pyrazolo[3,4-c]pyridine-3-carboxamide] |  | EC50 [2, 4]: 44 nM |
| CN(C(C)(CO)CO)S(=O)(=O)C1(CN2CCc3c(C(=O)NCc4ccc(Cl)cc4)nn(C)c3C2=O)CC1 [Example 154, N-(4-chlorobenzyl)-6-((1-(N-(1,3-dihydroxy-2-methylpropan-2-yl)-N-methylsulfamoyl)cyclopropyl)methyl)-1-methyl-7-oxo-4,5,6,7-tetrahydro-1H-pyrazolo[3,4-c]pyridine-3-carboxamide] | 83 |  |
| Cn1nc(C(=O)NCc2ccc(Cl)cc2)c2c1C(=O)N(CC1(S(=O)(=O)C(C)(CN)CO)CC1)CC2 (centres unmarked) [Example 186, 6-((1-((1-Amino-3-hydroxy-2-methylpropan-2-yl)sulfonyl)cyclopropyl)methyl)-N-(4-chlorobenzyl)-1-methyl-7-oxo-4,5,6,7-tetrahydro-1H-pyrazolo[3,4-c]pyridine-3-carboxamide] |  | EC50 ([2]; Human betaherpesvirus 5, 72 h, NN-NHDF cells, MOI 1, 72 hrs, read-out: CMV-Luc Cellular EC50): 90 nM |
